Calls of active or inactive are those of the source. The calls are words filed in the database; no cut-off is given here.
Legend:
[1] = Anti-osteoporosis activity C57/BL6 mouse bone marrow macrophage cells assessed as inhibition of RANKL-induced osteoclastogenesis at 1 uM measured after 5 to 6 days in presence of M-CSF and RNKL by TRAP staining microscopic analysis; type: functional, BMDM; set-up: scale not given: the % may be the effect or the level left; conditions: time 5-6 day
[2] = Anti-osteoporosis activity C57/BL6 mouse bone marrow macrophage cells assessed as inhibition of RANKL-induced osteoclastogenesis at 0.1 uM measured after 5 to 6 days in presence of M-CSF and RNKL by TRAP staining microscopic analysis; type: functional, BMDM; set-up: scale not given: the % may be the effect or the level left; conditions: time 5-6 day
BMDM [3] = experiment: Cytotoxicity against C57/BL6 mouse bone marrow macrophage cells assessed as reduction in cell viability at 10 uM incubated for 3 days by CCK8 assay; type: toxicity, cell-based; conditions: 72 h, time 3 day
BMDM [4] = experiment: Anti-osteoporosis activity C57/BL6 mouse bone marrow macrophage cells assessed as inhibition of RANKL-induced osteoclastogenesis and measured after 5 to 6 days in presence of M-CSF by TRAP staining based assay; type: functional, cell-based; conditions: dose 0.1-5 µM, time 5-6 day, DDE = dose-dependent effect
BMDM [5] = experiment: Cytotoxicity against C57/BL6 mouse bone marrow macrophage cells at 5 uM measured after 3 days in presence of M-CSF by CCK-8 assay; type: toxicity, cell-based; conditions: 72 h, time 3 day
BMDM [6] = experiment: Anti-osteoporosis activity C57/BL6 mouse bone marrow macrophage cells assessed as inhibition of RANKL-induced F-actin levels upto 5 uM measured after 5 to 6 days in presence of M-CSF by DAPI staining analysis; type: functional, cell-based; conditions: time 5-6 day
BMDM [7] = experiment: Anti-osteoporosis activity C57/BL6 mouse bone marrow macrophage cells assessed as inhibition of RANKL-induced F-actin size upto 5 uM measured after 5 to 6 days in presence of M-CSF by DAPI staining analysis; type: functional, cell-based; conditions: time 5-6 day
[8] = Anti-osteoporosis activity C57/BL6 mouse bone marrow macrophage cells assessed as inhibition of RANKL-induced osteoclastogenesis measured after 5 to 6 days in presence of M-CSF by DAPI staining analysis; type: functional, cell-based; conditions: bmdm
BMDM [9] = experiment: Inhibition of RANKL-induced TRAP in mRNA expression in C57/BL6 mouse bone marrow macrophage cells upto 5 uM measured after 3 days by qRT-PCR analysis; type: functional, cell-based; conditions: time 3.0 day
BMDM [10] = experiment: Inhibition of RANKL-induced Cathepsin K in mRNA expression in C57/BL6 mouse bone marrow macrophage cells upto 5 uM measured after 3 days by qRT-PCR analysis; type: functional, cell-based; conditions: time 3.0 day
BMDM [11] = experiment: Inhibition of RANKL-induced c-fos in mRNA expression in C57/BL6 mouse bone marrow macrophage cells upto 5 uM measured after 3 days by qRT-PCR analysis; type: functional, cell-based; conditions: time 3.0 day
BMDM [12] = experiment: Inhibition of RANKL-induced NFATc1 in mRNA expression in C57/BL6 mouse bone marrow macrophage cells upto 5 uM measured after 3 days by qRT-PCR analysis; type: functional, cell-based; conditions: time 3.0 day
[13] = biological target: T1, Tumor necrosis factor ligand superfamily member 11 (Homo sapiens, UniProt O14788); experiment: Binding affinity to human RANKL assessed as dissociation constant by surface plasmon resonance method
T1 sequence (O14788 whole entry): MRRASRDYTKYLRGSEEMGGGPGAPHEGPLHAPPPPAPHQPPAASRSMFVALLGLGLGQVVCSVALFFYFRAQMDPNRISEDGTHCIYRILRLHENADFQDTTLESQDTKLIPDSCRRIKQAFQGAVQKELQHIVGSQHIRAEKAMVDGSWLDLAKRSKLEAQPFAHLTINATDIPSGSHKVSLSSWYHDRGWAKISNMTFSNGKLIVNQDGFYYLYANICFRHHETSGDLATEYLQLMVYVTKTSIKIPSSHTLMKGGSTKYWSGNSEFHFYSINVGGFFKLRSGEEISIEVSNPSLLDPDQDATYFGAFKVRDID

BMDM [14] = experiment: Inhibition of RANKL-induced c-FOS protein expression in C57/BL6 mouse bone marrow macrophage cells upto 10 uM measured for 3 days in presence of M-CSF and RANKL by Western blot analysis; type: functional, cell-based; conditions: time 3.0 day, DDE = dose-dependent effect
BMDM [15] = experiment: Inhibition of RANKL-induced NFATC1 protein expression in C57/BL6 mouse bone marrow macrophage cells upto 10 uM measured for 3 days in presence of M-CSF and RANKL by Western blot analysis; type: functional, cell-based; conditions: time 3.0 day, DDE = dose-dependent effect
[16] = AUC(0 to t) in OVX-induced C57/BL6 mouse model at 3 mg/kg, iv; type: ADME, organism-based; set-up: dose 3 mg/kg, route iv; conditions: female, in vivo
[17] = Half life in OVX-induced C57/BL6 mouse model at 3 mg/kg, iv; type: ADME, organism-based; conditions: female, in vivo
[18] = Clearance in OVX-induced C57/BL6 mouse model at 3 mg/kg, iv; type: ADME, organism-based; conditions: female, in vivo
[19] = Oral bioavailability in OVX-induced C57/BL6 mouse model; type: ADME, organism-based; conditions: female, in vivo
Mus musculus [20] = experiment: Anti-osteoporosis activity in OVX-induced C57/BL6 mouse model assessed as increase in bone mineral density by measuring recovery at 60 mg/kg, po once per day for 28 days by microCT imaging analysis; type: functional; conditions: time 28 day
[21] = AUC(0 to t) in OVX-induced C57/BL6 mouse model at 5 mg/kg, po; type: ADME, organism-based; set-up: dose 5 mg/kg, route po; conditions: female, in vivo
[22] = Cmax in OVX-induced C57/BL6 mouse model at 5 mg/kg, po; type: ADME, organism-based; set-up: dose 5 mg/kg, route po; conditions: female, in vivo
[23] = Half life in OVX-induced C57/BL6 mouse model at 5 mg/kg, po; type: ADME, organism-based; conditions: female, in vivo
Mus musculus [24] = experiment: Anti-osteoporosis activity in ligature-induced periodontal BALB/c mouse model assessed as decrease in bone loss at 20 mg/kg, ip measured for 4 weeks by microCT imaging analysis; type: functional, organism-based
Mus musculus [25] = experiment: Anti-osteoporosis activity in ligature-induced periodontal BALB/c mouse model assessed as increase in alveolar bone mass at 20 mg/kg, ip measured for 4 weeks by microCT imaging analysis; type: functional
Mus musculus [26] = experiment: Anti-osteoporosis activity in ligature-induced periodontal BALB/c mouse model assessed as increase in bone volume at 20 mg/kg, ip measured for 4 weeks by microCT imaging analysis; type: functional
Mus musculus [27] = experiment: Anti-osteoporosis activity in ligature-induced periodontal BALB/c mouse model assessed as increase in vertical bone at 20 mg/kg, ip measured for 4 weeks by microCT imaging analysis; type: functional

AUC(0-t) [16]: 2710 ng·h/mL | half-life [17]: 5.1 h | clearance [18]: 18.6 mL/min/kg | bioavailability [19]: 4.9% | AUC(0-t) [21]: 223 ng·h/mL | Cmax [22]: 48.1 ng/mL | half-life [23]: 2 h
Structure (SMILES): Cc1cccc(C)c1NC(=O)c1cc2c([nH]c3ccccc32)c(CCc2ccccc2)n1
Activity [1]: 89.3% | Activity [2]: 45.9% | Cell viability (BMDM [3]): > 100% | Activity (BMDM [4]): Dde | Activity (BMDM [5]): Non-Toxic | Activity (BMDM [6]): Active | Activity (BMDM [7]): Active | IC50 [8]: 520 nM | inhibition (BMDM [9]): Active | inhibition (BMDM [10]): Active | inhibition (BMDM [11]): Active | inhibition (BMDM [12]): Active | Kd [13]: 5030 nM | inhibition (BMDM [14]): Dde | inhibition (BMDM [15]): Dde | Activity (Mus musculus [20]): 23.4% | Activity (Mus musculus [24]): Active | Activity (Mus musculus [25]): 60.7% | Activity (Mus musculus [26]): 51.9% | Activity (Mus musculus [27]): 67%

Source: ChEMBL document CHEMBL5120967, “Development of an Orally Active Small-Molecule Inhibitor of Receptor Activator of Nuclear Factor-κB Ligand” (J Med Chem, 2022)
